Laboratory results from patent US20080132415A1, “Method For Increasing Maize Yields” (priority 2004, published 2008).
Where two headings read alike, the source gives them in different places. Marks after values point to notes of the source that are not given here.

How the values were obtained:
[1] = test system: Golden Harvest hybrid corn; assay type: in vivo
Text: The hybrid corn species Golden Harvest was used in the study.
On one or more of the herbicides were used in combination with the insecticide chlorpyrifos—841 g/ha and with or without isoxadifen—37 g/ha.
A CO2 backpack sprayer was used to apply the compounds at 187 L/ha at 247 kPa.

[2] = test system: Pioneer 33P66 hybrid corn; conditions: applied at V6 growth stage at 1x field use rates, isoxadifen 37 g/ha where included
Protocol: The study was conducted in Bloomington, DeKalb and Urbana, Ill. to evaluate the crop response when isoxadifen was used with postemergence corn herbicides. Two hybrid corn species with different levels of tolerance were used in the study: Pioneer 33K81, a species sensitive to plant growth regulators (PGRs), isoxazole, amides and sulfonylureas (SUs); and Pioneer 33P66, a tolerant species. Plots were kept weed-free to eliminate any competition from weeds.
The following herbicides and their respective field use rates were used in the study:
rimsufuron—26 g/ha; nicosulfuron+rimsulfuron—39 g/ha; foramsulfuron—37 g/ha; diflufenzopyr+dicamba—294 g/ha; mesotrione—105 g/ha; and dicamba—560 g/ha. One or more of the herbicides were used with or without isoxadifen—37 g/ha. All herbicides were applied at the 1× labeled field use rates.
Timing of the application of the compounds was at the V6 growth stage (i.e., when there were six visible collars of the corn). Additionally, methylated seed oil (MSO)+28% […] (UAN) were applied at a concentration of 1% v/v+2.5% v/v.

[3] = test system: corn hybrids Pioneer 33K81 and Pioneer 33P66; assay: Field study of isoxadifen with postemergence corn herbicides (Example 1), both hybrids or hybrid not stated; assay type: in vivo
[4] = test system: Pioneer 33K81 hybrid corn; assay: Field study of isoxadifen with postemergence corn herbicides (Example 1), hybrid Pioneer 33K81; assay type: in vivo
Text: Timing of the application of the compounds was at the V6 growth stage (i.e., when there were six visible collars of the corn). Additionally, methylated seed oil (MSO)+28% ureas and ammonium sulfate (UAN) were applied at a concentration of 1% v/v+2.5% v/v.

[5] = herbicide in combination with chlorpyrifos 841 g/ha and isoxadifen 37 g/ha, seven days post application
[6] = herbicide in combination with chlorpyrifos 841 g/ha, without isoxadifen, seven days post application
[7] = herbicide in combination with chlorpyrifos, without isoxadifen
[8] = percentage of control, herbicide in combination with chlorpyrifos 841 g/ha and isoxadifen 37 g/ha
[9] = percentage of control, herbicide in combination with chlorpyrifos 841 g/ha, without isoxadifen

Structure (SMILES) | CORN INJURY Chlor + Isoxadifen [1, 5] | CORN INJURY Chlorpyrifos [1, 6] | corn injury compared to the application of the same combination and isoxadifen [1, 7] | corn yield compared to the application of the same combination and isoxadifen [1, 7] | CORN YIELD Chlor + Isoxadifen [1, 8] | CORN YIELD Chlorpyrifos [1, 9] | PERCENTAGE OF CORN INJURY Pioneer 33P66 ([2]; 7 days post application) | CORN YIELD - PERCENTAGE OF CONTROL Pioneer 33P66 ([2]; percentage of control) | crop injury when tank-mixed with isoxadifen, compared with the same herbicide without isoxadifen ([3]; both hybrids, 7 days after treatment) | PERCENTAGE OF CORN INJURY Pioneer 33K81 ([4]; 7 days post application, applied at V6 growth stage at 1x field use rates, isoxadifen 37 g/ha where included) | CORN YIELD - PERCENTAGE OF CONTROL Pioneer 33K81 ([4]; percentage of control, applied at V6 growth stage at 1x field use rates, isoxadifen 37 g/ha where included) | CORN INJURY Chlor + Isoxadifen ([1]; in vivo) | CORN INJURY Chlorpyrifos ([1]; in vivo) | CORN YIELD Chlor + Isoxadifen ([1]; in vivo) | CORN YIELD Chlorpyrifos ([1]; in vivo) | corn injury compared to the application of the same combination and isoxadifen ([1]; in vivo) | corn yield compared to the application of the same combination and isoxadifen ([1]; in vivo) | difference in adding isoxadifen ([3]; hybrid not stated, data not shown) | crop injury when tank-mixed with isoxadifen ([4]; P33K81 hybrid corn, addition of isoxadifen, data not shown)
COc1cc(OC)nc(NC(=O)NS(=O)(=O)c2cc(NC=O)ccc2C(=O)N(C)C)n1 [Foramsulfuron, foramsulfuron] | 37 * % | 47% | significantly more corn injury | significantly smaller corn yield | 92 * % | 82% |  |  |  |  |  |  |  |  |  |  |  |  | 
COc1c(Cl)ccc(Cl)c1C(=O)O [Dicamba, dicamba] |  |  |  |  |  |  | 36% | 89% | less crop injury | 25% | 81% | 37 * % | 65% | 86 * % | 75% | significantly more corn injury | significantly smaller corn yield |  | 
CS(=O)(=O)c1ccc(C(=O)C2C(=O)CCCC2=O)c([N+](=O)[O-])c1 [Mesotrione, mesotrione] | 12 * % | 34% | significantly more corn injury | no significant difference | 97% | 97% |  |  |  |  |  |  |  |  |  |  |  | no significant difference | 
CCS(=O)(=O)c1cccnc1S(=O)(=O)NC(=O)Nc1nc(OC)cc(OC)n1 [Rimsulfuron, rimsulfuron] | 45% | 37% | no significant difference | significantly smaller corn yield | 95 * % | 65% |  |  |  |  |  |  |  |  |  |  |  |  | less crop injury
